Measurements from ChEMBL document CHEMBL4651402, “Screening of ~5500 FDA-approved drugs and clinical candidates for anti-SARS-CoV-2 activity” (2021).

System: SARS-CoV-2
Test: microbe, parasite or virus in culture
Settings: Severe acute respiratory syndrome coronavirus 2, Vero C1008, 48 h

| SMILES | IC50 | IC50 (read-out: pIC50 (converted)) |
| --- | --- | --- |
| CCOC(=O)CCC(=O)O[C@H]1[C@H](O[C@@H]2[C@@H](C)[C@H](O[C@H]3C[C@@](C)(OC)[C@@H](O)[C@H](C)O3)[C@@H](C)C(=O)O[C@H](CC)[C@@](C)(O)[C@H](O)[C@@H](C)C(=O)[C@H](C)C[C@@]2(C)O)O[C@H](C)C[C@@H]1N(C)C [ERYTHROMYCIN ETHYLSUCCINATE] | > 20 µM | > 20 µM |
| Cc1cc(C(=O)NNCc2ccccc2)no1 [ISOCARBOXAZID] | > 20 µM | > 20 µM |
| C[C@@H](NCCCc1cccc(C(F)(F)F)c1)c1cccc2ccccc12 | > 20 µM | > 20 µM |
| NC(=O)c1[nH]cnc1N | > 20 µM | > 20 µM |
| CN(Cc1cnc2nc(N)nc(N)c2n1)c1ccc(C(=O)NC(CCC(=O)O)C(=O)O)cc1 (stereo not given) | > 20 µM | > 20 µM |
| CC(C)(Cc1ccccc1)NCC(O)c1ccc(O)c(NS(C)(=O)=O)c1 (stereo not given) [ZINTEROL] | > 20 µM | > 20 µM |
| OCc1ccc(Cl)cc1Cl [DICHLOROBENZYL ALCOHOL] | > 20 µM | > 20 µM |
| O=C(O)c1ccccc1Nc1cccc(C(F)(F)F)c1 [FLUFENAMIC ACID] | > 20 µM | > 20 µM |
| C[N+](C)(C)NCCC(=O)O | > 20 µM | > 20 µM |
| O=C(O)c1cccnc1 [NIACIN] | > 20 µM | > 20 µM |
| CC(C)CC(=O)N[C@H](C(=O)N[C@H](C(=O)N[C@@H](CC(C)C)[C@@H](O)CC(=O)N[C@@H](C)C(=O)N[C@@H](CC(C)C)[C@@H](O)CC(=O)O)C(C)C)C(C)C [PEPSTATIN] | > 20 µM | > 20 µM |
| O=S(=O)(O)c1ccc2ccccc2c1 | > 20 µM | > 20 µM |
| O=c1ccn([C@@H]2O[C@H](CO)[C@@H](O)[C@@H]2O)c(=O)[nH]1 [ARAURIDINE] | > 20 µM | > 20 µM |
| CC(=O)[C@]1(N)Cc2c(O)c3c(c(O)c2[C@@H](O[C@H]2C[C@H](O)[C@H](O)CO2)C1)C(=O)c1ccccc1C3=O [AMRUBICIN] | > 20 µM | > 20 µM |
| N[C@@H](C(=O)O)[C@@H](O)[C@H](O)[C@H](O)CO [GLUCOSAMINIC ACID] | > 20 µM | > 20 µM |
| C[C@@H](CO)NC(=O)[C@@H]1C=C2c3cccc4[nH]cc(c34)C[C@H]2N(C)C1 [ERGONOVINE] | > 20 µM | > 20 µM |
| CC1(Cn2ccnn2)[C@H](C(=O)O)N2C(=O)C[C@H]2S1(=O)=O (stereo not given in full) | > 20 µM | > 20 µM |
| C[C@H](NCc1ccc(OCc2ccccc2F)cc1)C(N)=O [RALFINAMIDE] | > 20 µM | > 20 µM |
| CCN(CC)Cc1cc(Nc2ccnc3cc(Cl)ccc23)ccc1O [AMODIAQUINE] | > 20 µM | > 20 µM |
| Cc1ccc(O)cc1 [p-CRESOL] | > 20 µM | > 20 µM |
| CC(C)c1cc(-c2n[nH]c(=O)n2-c2ccc3c(ccn3C)c2)c(O)cc1O [GANETESPIB] | > 20 µM | > 20 µM |
| COc1cc2c(N)nc(N3CCN(C(=O)OCC(C)(C)O)CC3)nc2c(OC)c1OC [TRIMAZOSIN] | > 20 µM | > 20 µM |
| N=C1NC(=O)N2CC12 (stereo not given) [IMEXON] | > 20 µM | > 20 µM |
| COc1cccc(OC)c1-c1ccc(C[C@H](NC(=O)c2c(Cl)cccc2Cl)C(=O)O)cc1 | > 20 µM | > 20 µM |
| Nc1nc(N)c(-c2ccccc2)s1 [AMIPHENAZOLE] | > 20 µM | > 20 µM |

| SMILES | IC50 | IC50 (read-out: pIC50 (converted)) |
| --- | --- | --- |
| N[C@H](CO)C(=O)O [(D)-SERINE] | > 20 µM | > 20 µM |
| CCCC[C@@]1(CC)CS(=O)(=O)c2cc(CNC(CC(=O)O)CC(=O)O)c(OC)cc2[C@H](c2ccccc2)N1 | > 20 µM | > 20 µM |
| CCN(CC)CCOc1ccccc1C(=O)CCc1ccccc1 [ETAFENONE] | > 20 µM | > 20 µM |
| O=C1Nc2ccc(Cl)cc2C(/C=C/C2CC2)(C(F)(F)F)N1 (stereo not given) | > 20 µM | > 20 µM |
| CCN(CC)C(=S)S [DITIOCARB] | > 20 µM | > 20 µM |
| COc1ccccc1C(=O)NCCc1ccc(S(=O)(=O)NC(=O)NC2CCCC2)cc1 [GLISENTIDE] | > 20 µM | > 20 µM |
| CN(C)CCCOC1(Cc2ccccc2)CCCCCC1 [BENCYCLANE] | > 20 µM | > 20 µM |
| NNC(=O)c1ccncc1 [ISONIAZID] | > 20 µM | > 20 µM |
| O/N=C1/CCCC/C1=N\O | > 20 µM | > 20 µM |
| CC12CCC(C(C(=O)O)C1=O)C2(C)C (stereo not given) | > 20 µM | > 20 µM |
| CCCCC(=O)N(Cc1ccc(-c2ccccc2-c2nnn[nH]2)cc1)[C@H](C(=O)O)C(C)C | > 20 µM | > 20 µM |
| CCN(CC)CC/C(=N\OC(=O)Nc1ccc(OC)cc1)c1ccccc1 | > 20 µM | > 20 µM |
| NS(=O)(=O)NCc1csc2ccccc12 | > 20 µM | > 20 µM |
| CCN(CC)C(=O)c1ccc(O)c(OC)c1 | > 20 µM | > 20 µM |
| C[C@@H]1C[C@H]2[C@@H]3CCC4=CC(=O)C=C[C@]4(C)[C@@]3(F)[C@@H](O)C[C@]2(C)[C@H]1C(=O)CO [DESOXIMETASONE] | > 20 µM | > 20 µM |
| NC1CC1c1ccccc1 (stereo not given) | > 20 µM | > 20 µM |
| O=S(=O)(O)CCN1CCN(CCO)CC1 | > 20 µM | > 20 µM |
| N[C@@]1(C(=O)O)CS(=O)(=O)[C@H]2[C@H](C(=O)O)[C@H]21 [LY404039] | > 20 µM | > 20 µM |
| O=C(OC(C(F)(F)F)C(F)(F)F)N1CCN(Cc2ccc(C(F)(F)F)cc2N2CCCC2)CC1 [ELCUBRAGISTAT] | > 20 µM | > 20 µM |
| CN(c1nc2ccccc2s1)C1CCN(CC(O)COc2ccc(F)cc2)CC1 (stereo not given) [SABELUZOLE] | > 20 µM | > 20 µM |
| CCOc1cccnc1Oc1cncc(-c2ncc(C(=O)N[C@H]3CCOC3)cn2)c1 [PF-06865571] | > 20 µM | > 20 µM |
| C#C[C@]1(O)CC[C@H]2[C@@H]3CCc4cc(O)ccc4[C@H]3CC[C@@]21C [ETHINYL ESTRADIOL] | > 20 µM | > 20 µM |
| CCOc1ccc(NC(C)=O)cc1 [PHENACETIN] | > 20 µM | > 20 µM |
| CC(c1ccc(Cl)c(Cl)c1)N1N=C(N)CC1=O (stereo not given) [MUZOLIMINE] | > 20 µM | > 20 µM |
| O=c1cc(CO)occ1O [KOJIC ACID] | > 20 µM | > 20 µM |

| SMILES | IC50 | IC50 (read-out: pIC50 (converted)) |
| --- | --- | --- |
| Cc1onc(-c2c(Cl)cccc2Cl)c1C(=O)N[C@@H]1C(=O)N2[C@@H]1SC(C)(C)[C@@H]2C(=O)O [DICLOXACILLIN] | > 20 µM | > 20 µM |
| COc1ccc(CCN)cc1OC | > 20 µM | > 20 µM |
| C=CCC(N)Cc1ccccc1 (stereo not given) [ALETAMINE] | > 20 µM | > 20 µM |
| CC(C)C1NC(=O)[C@@H](C(C)C)OC(=O)[C@H](C(C)C)NC(=O)[C@H](C)OC(=O)[C@@H](C(C)C)NC(=O)[C@@H](C(C)C)OC(=O)[C@H](C(C)C)NC(=O)[C@H](C)OC(=O)[C@@H](C(C)C)NC(=O)[C@@H](C(C)C)OC(=O)[C@H](C(C)C)NC(=O)[C@H](C)OC1=O (stereo not given in full) | > 20 µM | > 20 µM |
| c1ccc2c3c([nH]c2c1)[C@H]1[C@H]2CC[C@H]([C@@H]4CCCN[C@@H]42)N1CC3 | > 20 µM | > 20 µM |
| C[C@H]1CCC[C@H](C)N1CCCCNC(=O)C(Oc1ccccc1)c1ccccc1 (stereo not given in full) | > 20 µM | > 20 µM |
| N[C@@H]1[C@H]2CN(c3nc4c(cc3F)c(=O)c(C(=O)O)cn4-c3ccc(F)cc3F)C[C@@H]12 [TROVAFLOXACIN] | > 20 µM | > 20 µM |
| CN(CCCN1c2ccccc2CCc2ccccc21)CC(=O)c1ccc(Cl)cc1 [LOFEPRAMINE] | > 20 µM | > 20 µM |
| NC(=O)c1[nH]nc([C@@H]2O[C@H](CO)[C@@H](O)[C@H]2O)c1O [PYRAZOFURIN] | > 20 µM | > 20 µM |
| Cn1cc(-c2ccncc2)c(-c2ccc(OCc3ccc4ccccc4n3)cc2)n1 [MARDEPODECT] | > 20 µM | > 20 µM |
| CCCc1nn(C)c2c(=O)[nH]c(-c3cc(S(=O)(=O)N4CCN(C)CC4)ccc3OCC)nc12 | > 20 µM | > 20 µM |
| Oc1ccc2c3c1O[C@H]1[C@@H](O)CC[C@@]4(O)[C@@H](C2)N(CC2CCC2)CC[C@]314 [NALBUPHINE] | > 50.1 µM | > 50.1 µM |
| CC(=O)Nc1c(I)c(C(=O)N[C@H]2C(O)O[C@H](CO)[C@@H](O)[C@@H]2O)c(I)c(N(C)C(C)=O)c1I (stereo not given in full) [METRIZAMIDE] | > 20 µM | > 20 µM |
| COc1cc2occc2c2oc(=O)ccc12 [ISOBERGAPTENE] | > 20 µM | > 20 µM |
| CCOC(=O)[N-]c1c[n+](N2CCOCC2)no1 [MOLSIDOMINE] | > 20 µM | > 20 µM |
| CN(CCOc1ccc(CC2SC(=O)NC2=O)cc1)c1ccccn1 (stereo not given) [ROSIGLITAZONE] | > 20 µM | > 20 µM |
| CC1=C(C(=O)O)N2C(=O)[C@@H](NC(=O)[C@H](N)c3ccccc3)[C@H]2SC1 [CEPHALEXIN ANHYDROUS] | > 20 µM | > 20 µM |
| CC(=O)N[C@@H](Cc1c[nH]c2ccccc12)C(N)=O [ACETYLTRYPTOPHANAMIDE] | > 20 µM | > 20 µM |
| C[N+](C)(C)C[C@H](O)CC(=O)[O-] [LEVOCARNITINE] | > 20 µM | > 20 µM |
| COc1cc(OC)c(C(=O)CCCN2CCCC2)c(OC)c1 [BUFLOMEDIL] | > 20 µM | > 20 µM |
| C[N+](C)(C)CCOC(N)=O [CARBAMOYLCHOLINE] | > 20 µM | > 20 µM |
| C=C1CC2C3C=C(C)C4=CC(=O)CCC4(C)C3CCC2(C)C1(OC(C)=O)C(C)=O (stereo not given) | > 20 µM | > 20 µM |
| CCCCOC(=O)NS(=O)(=O)c1sc(CC(C)C)cc1-c1ccc(Cn2ccnc2)cc1 [BULOXIBUTID] | > 20 µM | > 20 µM |
| CC(C(=O)O)c1ccc(C(=O)c2ccccc2)s1 (stereo not given) [TIAPROFENIC ACID] | > 20 µM | > 20 µM |
| CC1CC2C3CCC4=CC(=O)C=CC4(C)[C@@]3(F)C(O)CC2(C)C1(O)C(=O)COP(=O)(O)O (stereo not given in full) | > 20 µM | > 20 µM |
